In patent EP4332093A1, “SALT CONTAINING PIPERAZINE POLYCYCLIC DERIVATIVE, CRYSTAL FORM THEREOF, PREPARATION METHOD THEREFOR, AND USE THEREOF” (Shanghai Hansoh Biomedical Co., Ltd., priority 2021, dated 2022):

Legend:
rats = assay: Pharmacodynamic model of active escape experiment in rats; format: in vivo; details: F344 rats, oral, Dose 1 mg/kg, one hour before the test; Vehicle 91-98%
Procedure: To evaluate the anti-schizophrenic effect of the compounds using the pharmacodynamic model of the active escape experiment in rats.
A certain mass (such as 1.0 g) of CMC-Na was weighed into a glass bottle. A certain volume (such as 200 mL) of purified water was added. The resulting mixture was stirred to disperse evenly. 1% (v/v) Tween 80 was added according to the solution volume, and the resulting mixture was stirred overnight to obtain a homogeneous clear solution, which was stored at 2 to 8°C for later use.
A prescription amount of the compound was weighed, followed by the addition of a prescription volume of 0.5% CMC-Na+1% Tween 80 solution. […]
The actual sample amount needs to be calculated during the formulation and administration of the compound solution. […]
The current intensity was 0.6 mA and the duration was 10 seconds. […] This would be recorded as escape failures, and the single training ended; • 5.1.5 Each animal was trained 30 times a day for a total of 6 days, and returned to the cage after the training. • 5.2 Baseline test and grouping […]
The following data was collected by the software for data analysis: • Number of avoids of the animal; • Number of escape failures of the animal; • Escape latency of the animal; • All measurement data were expressed as mean ± standard error (Mean ± SEM), and analyzed by Graphpad 6 statistical software. […]

dopamine D3 receptor = target: T1, dopamine D3 receptor (Homo sapiens, UniProt P35462); assay: Radioligand binding assay, dopamine D3 receptor ([3H]-methylspiperone); details: Human Dopamine D3 Receptor membrane, [3H]-methylspiperone 0.5 nM
T1 construct: purchased PerkinElmer ES-173-M400UA
T1 sequence (P35462 whole entry): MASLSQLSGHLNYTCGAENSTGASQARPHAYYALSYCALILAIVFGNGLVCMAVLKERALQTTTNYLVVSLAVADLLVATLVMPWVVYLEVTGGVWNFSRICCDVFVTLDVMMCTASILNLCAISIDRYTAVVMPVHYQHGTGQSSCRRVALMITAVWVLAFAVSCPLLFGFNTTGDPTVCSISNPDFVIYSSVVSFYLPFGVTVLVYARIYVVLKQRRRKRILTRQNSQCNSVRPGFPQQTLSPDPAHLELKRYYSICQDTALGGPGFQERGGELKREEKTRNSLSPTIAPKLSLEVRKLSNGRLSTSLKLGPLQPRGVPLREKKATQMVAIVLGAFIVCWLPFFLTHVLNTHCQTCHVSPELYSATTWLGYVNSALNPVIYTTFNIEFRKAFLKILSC

5-HT2A receptor = 5-HT2A receptor (Homo sapiens, UniProt P28223); assay: Radioligand binding assay, 5-HT2A receptor ([3H]-Ketanserin); design: purchased PerkinElmer; details: Human 5-HT2A Receptor membrane, [3H]-Ketanserin 2 nM; read-out: 5HT-2A Binding IC50
5-HT2A receptor, sequence (P28223 whole entry): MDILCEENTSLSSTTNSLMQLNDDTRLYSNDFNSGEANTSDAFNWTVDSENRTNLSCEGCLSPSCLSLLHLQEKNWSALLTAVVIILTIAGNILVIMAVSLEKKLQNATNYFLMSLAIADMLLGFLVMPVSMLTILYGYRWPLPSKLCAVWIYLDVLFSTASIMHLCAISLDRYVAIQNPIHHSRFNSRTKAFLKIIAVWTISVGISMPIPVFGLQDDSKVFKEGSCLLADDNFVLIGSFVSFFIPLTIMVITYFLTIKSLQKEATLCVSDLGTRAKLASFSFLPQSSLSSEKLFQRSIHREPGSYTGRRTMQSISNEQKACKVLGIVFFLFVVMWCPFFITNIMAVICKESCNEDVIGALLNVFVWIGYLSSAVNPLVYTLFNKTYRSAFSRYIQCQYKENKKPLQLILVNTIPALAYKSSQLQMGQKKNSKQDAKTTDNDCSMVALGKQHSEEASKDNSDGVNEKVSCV

Structure (SMILES) | IC50 (dopamine D3 receptor) | IC50 (5-HT2A receptor) | CAR value (rats)
O=C(NC1CC(CCN2CCN(c3cccc(Cl)c3Cl)CC2)C1)c1ncco1 (stereo not drawn) [Example 12, N-(3-(2-(4-(2,3-Dichlorophenyl)piperazin-1-yl)ethyl)cyclobutyl)oxazole-2-carboxamide] | – | – | 30%
O=C(N[C@H]1C[C@H](CCN2CCN(c3cccc(Cl)c3Cl)CC2)C1)c1ncco1 [Example 12A, N-(Trans-3-(2-(4-(2,3-dichlorophenyl)piperazin-1-yl)ethyl)cyclobutyl)oxazole-2-car boxamide] | 0.37 nM | 4.19 nM | 18.5%
O=C(N[C@H]1C[C@H](CCN2CCN(c3cccc(Cl)c3Cl)CC2)C1)c1cccc2ncccc12 [Example 19A, N-(Trans-3-(2-(4-(2,3-dichlorophenyl)piperazin-1-yl)ethyl)cyclobutyl)quinoline-5-c arboxamide] | 0.4 nM | 1.89 nM | –

Now from value to molecule, other results behind:

IC50 (dopamine D3 receptor) | IC50 (5-HT2A receptor) | Structure (SMILES) | CAR value (rats)
0.75 nM | 5.77 nM | O=C(N[C@H]1C[C@H](CCN2CCN(c3cccc(Cl)c3Cl)CC2)C1)C1(O)CC1 [Example 6A, N-(Trans-3-(2-(4-(2,3-dichlorophenyl)piperazin-1-yl)ethyl)cyclobutyl)-1-hydroxycy clopropane-1-carboxamide] | –
0.44 nM | 0.79 nM | O=C(N[C@H]1C[C@H](CCN2CCN(c3cccc(Cl)c3Cl)CC2)C1)c1nccs1 [Example 7A, N-(Trans-3-(2-(4-(2,3-dichlorophenyl)piperazin-1-yl)ethyl)cyclobutyl)thiazole-2-car boxamide] | –
2.54 nM | 8.73 nM | O=C(N[C@H]1C[C@@H](CCN2CCN(c3cccc(Cl)c3Cl)CC2)C1)c1ncco1 [Example 12B, N-(Cis-3-(2-(4-(2,3-dichlorophenyl)piperazin-1-yl)ethyl)cyclobutyl)oxazole-2-carbo xamide] | –
